{"source": "patent US7728105B2", "about": "“Peptides impairing PBX dependent gene regulation” (St. George's Hospital Medical School, priority 2002, dated 2010)", "assay_type_in_all_cases": "cell-based, human", "key": {"PBX/HOX dimers": {"tested_on": "PBX/HOX dimers", "assay": "Western blotting of PBX and PBX/HOX dimers in CD133+ cells (Example 3)", "details": "20 μg/ml, EDC cross-linking", "experimental": "CD133+ cells (another name for AC133+ cells) were seeded in duplicate at 4×10^4 cells/ml in IMDM (Life Technologies), 10% FCS (Sigma Aldrich) and gentamycin (50 μg/ml Life Technologies) and Thrombopoietin (TPO) 10 ng/ml, Flt3-Ligand (FL) 50 ng/ml & c-KitL (K) 20 ng/ml), all obtained from R and D systems Ltd., UK. (Forraz et al., 2002). The HXP peptide (N-term: WYPWMKKHHRQIKIWFQNRRMKWKK: C-term; Eurogentec, Belgium) and control CXP peptide (N-term: WCCLADRHGRQIKIWFQNRRMKWKK: C-term; Eurogentec, Belgium) were added to culture medium at a concentration of 20 μg/ml. To withdraw peptides from culture, cells were washed twice in IMDM or RPMI and reseeded at prewash cell densities. Primary cells were cultured for 3 weeks at 37° C., 5% CO2 in humidified atmosphere and enumerated by a […] exclusion method with a heamocytometer.\nProtein was extracted from HXP-treated or CXP-treated CD133+ cells (20 μg/ml). C-20 antibody that recognises all three human PBX gene proteins (sc-888, Santa Cruz Biotechnology Inc., USA; Monica et al., 1991). Protein cross linking was performed with 2 mM 1-ethyl-3-[3-(dimethylamino)propyl]carbodiimide (EDC) (Pierce Biotechnology, USA), in cell lysates diluted 1:10 in conjugation buffer (0.1M 2-[N-morpholino]ethane sulphonic acid, pH 5). […]"}, "KG1a cells": {"tested_on": "KG1a cells", "assay": "RT-PCR of stem/progenitor and maturation markers in KG1a cells", "details": "7 days of treatment", "experimental": "Total RNA was extracted from cultured human cells using the Rneasy mini kit (Quiagen) and following the manufacturer's instructions. 3 μg of RNA was used in subsequent reverse transcription reactions. The RNA was mixed with a poly T15 oligo to 5 microgrammes/ml and heated to 75° C. for 5 minutes. After cooling on ice, the following additional reagents were added; dNTPs to 0.4 mM, RNase OUT (Promega) to 1.6 U/μl, Moloney Murine Leukemia Virus Reverse Transcriptase (M-MLRvT) RnaseH— point mutant (Promega) to 8 U/μl and the appropriate buffer (supplied by the manufacturer) to x1 concentration. The mixture was incubated for one hour at 37° C., heated to 70° C. for two minutes and cooled on ice.\nPCR reactions were all performed in a total volume of 40 μl. For each we used 1 μl of the M-MLRvT reaction (as described above), 0.2 nmols of each primer and 20 microliters of Redimix pre-mixed PCR components (Sigma). All reactions were cycled at 94° C. for 30 seconds, 55° C. for 30 seconds and 72° C. for 60 seconds. 30 cycles were used for all primer sets except those for beta-actin, for which 23 cycles were used."}, "[1]": {"tested_on": "Hox genes in malignant cell lines", "assay": "RT-PCR of HOX gene expression in malignant cell lines", "details": "20 μg/ml, at least two different Hox genes in each case", "experimental": "(§1) A number of cell lines representing different malignancies were grown in culture for seven days, and HXP peptide or the control peptide CXP were added to a final concentration of 20 μg/ml on day 3. The bars represent the fold increase of each cell line over the seven days; the empty, dashed bars indicate the CXP peptide treated cells, whilst the solid bars indicate the addition of HXP peptide. Error bars represent the standard error the mean, and n is the number of experiments performed. The cell lines used were: AML—KG1a; Bladder—HT; Breast—SKBR3; Cervical—HeLa; Colon—Colo41; Gastric—MKN-45; Large cell lung cancer—MES; Melanoma—DX3; Ovarian—1847; Pancreatic—Panc-Tu1; Prostate—LNCAP; Renal—HT1376; Small cell lung cancer—NCI-h510A. The change in the expression of the HOX genes expressed by each cell line was assessed by RT-PCR on RNA extracted from the cells at the end of seven days. ‘HOX gene inactivated’ means that the level of expression of each of the listed HOX genes was at least five fold lower in the HXP peptide treated cells compared to the control. *Analysis not yet complete.\nThe sequences of RT-PCR primers used are set out below. For each primer pair, the amplified region is given in relation to the known gene sequence as available through GenBank (http://www.ncbi.nlm.nih.gov/entrez)."}, "[2]": {"tested_on": "KG1a, HL60 and U937 cells", "assay": "Cell cycle of leukaemic cell lines synchronised in G0-G1 with L-mimosine", "details": "HL60 and U937 synchronised in G0-G1, over 48 hours, vs control peptide", "experimental": "The proportion of KG1a, HL60 and U937 cells in G0-G1 phase of the cell cycle upon HXP peptide treatment was compared to CXP4. Cells were synchronised in G0-G1 phase of the cell cycle by exposure to 0.5 mM L-mimosine. Results are expressed as the mean percentage of four experiments (+/−SE).\nKG1a, HL60 and U937 cell cycle profiles were analysed over 48 hours in culture with HXP peptide or the control peptide (FIG. 10). The effect of HXP peptide on non-synchronised cells varied considerably (data not shown)."}, "malignant cell lines": {"tested_on": "malignant cell lines", "assay": "Proliferation of malignant cell lines over seven days in culture", "parameters": "effect of increased dose on proliferation of malignant cell lines: dose or concentration left out as unconfirmed", "experimental": "as §1\nA number of cell lines representing different malignancies were grown in culture for seven days, and HXP peptide or the control peptide CXP were added to a final concentration of 200 μg/ml on day 3. The bars represent the fold increase of each cell line over the seven days; the empty, dashed bars indicate the CXP peptide treated cells, whilst the solid bars indicate the addition of HXP peptide. Error bars represent the standard error the mean, and n is the number of experiments performed. The cell lines used were: Bladder—HT; Cervical—HeLa; Melenoma—DX3; Pancreatic—Panc-Tu1.\nSolid tumour cell lines (Cancer Research UK) were seeded at 4×10^4 cells/ml, in a liquid culture system made of appropriate medium (see table, Sigma-Aldrich, UK) supplemented with 10% FCS (Sigma Aldrich) and penstrep (1% Sigma). All cell lines were grown with HXP peptide (as in Example 3, 20 μg/ml or 200 μg/ml) or control peptide CXP (20 μg/ml or 200 μg/ml).\nKG1a, KG1, HL60 and U937 cell lines (EACC, UK) were seeded at 5×10^4 cells/ml, in a liquid culture system made of RPMI-1640 medium (Life Technologies, UK) supplemented with 10% FCS (Sigma Aldrich) and gentamicin (50 μg/ml Life Technologies) in triplicates. All cell lines were grown with HXP peptide peptide (20 μg/ml) or control peptide (20 μg/ml).\nCell lines were cultured for various time points at 37° C., 5% CO2 in humidified atmosphere and enumerated at various time points."}, "[3]": {"details": "20 μg/ml added on day 3, seven days culture"}}, "note": "“Also recorded” adds a separate entry of the source.", "data": [{"substance": "WYPWMKKHHRQIKIWFQNRRMKWKK [HXP peptide]", "values": [{"measurement": "binding of PBX to other proteins / formation of PBX/HOX dimers", "setting": "PBX/HOX dimers", "result": "prevented binding of PBX to other proteins; also recorded: distrupted the formation of PBX/HOX dimers"}, {"measurement": "markers of maturation/differentiation (CD38)", "setting": "KG1a cells", "result": "elevated"}, {"measurement": "markers of stem/progenitor cells (AC133, CD34, HOXB4, HOXB8 and HOXA9)", "setting": "KG1a cells", "result": "diminished"}, {"measurement": "Hox gene expression in each cancer cell line with reduced proliferation", "setting": "[1]", "result": "transcriptionaly silenced"}, {"measurement": "proportion of cells leaving phase G0-G1 and entering the cell cycle", "setting": "[2]", "result": "induces a significantly higher proportion of cells to leave the phase G0-G1 and enter the cell cycle"}, {"measurement": "fold increase in cell number after 7 days in culture, in some cases", "setting": "malignant cell lines; 20 μg/ml", "result": "less than 1"}, {"measurement": "proliferation of cells derived from colorectal, pancreatic, small cell lung, bladder, prostate, cervical, ovarian and gastric cancers", "setting": "malignant cell lines; [3]", "result": "sufficient to block the proliferation"}, {"measurement": "proliferation of cells derived from renal, breast and non-small cell lung cancer", "setting": "malignant cell lines; [3]", "result": "no significant affect"}, {"measurement": "effect of increased dose on proliferation of malignant cell lines", "setting": "malignant cell lines; ten fold increase in dose", "result": "complete ablation of some malignancies"}]}]}
